Consider 5 compounds from EP3315028B1, “USE OF INHIBITORS OF NLP PROTEINS AS PHYTOPHARMACEUTICALS FOR PLANT PATHOGEN CONTROL” (Kemijski Institut, priority 2016, dated 2018).

The target in assay [1] is T1, NLPPya (Pythium aphanidermatum, UniProt Q9SPD4). As to the kind of experiment: Interactions of compounds with NLP proteins determined by surface plasmon resonance (NLPPya). It is filed as binding. The conditions noted are these: Biacore T100, CM5 chip, Steady State Affinity model; 50 mM MES, 140 mM NaCl, 5 % DMSO, pH 5,8; 25 °C; n=number of titrations.
The target of a further assay is T2, NLPPp (Phytophthora nicotianae, UniProt Q9AT28).
T2 construct: made in house; host or cells: Pichia pastoris
T2 sequence (Q9AT28 20-237): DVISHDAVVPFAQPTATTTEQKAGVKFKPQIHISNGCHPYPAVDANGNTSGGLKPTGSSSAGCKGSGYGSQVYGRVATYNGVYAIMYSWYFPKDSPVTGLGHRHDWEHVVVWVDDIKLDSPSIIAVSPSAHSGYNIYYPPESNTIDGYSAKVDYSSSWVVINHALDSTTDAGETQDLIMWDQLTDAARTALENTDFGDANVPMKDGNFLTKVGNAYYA
As to the kind of experiment: Interactions of compounds with NLP proteins determined by surface plasmon resonance (NLPPp). The class given is binding, Phytophthora parasitica. Conditions: Biacore T100, CM5 chip, Steady State Affinity model; 50 mM MES, 140 mM NaCl, 5 % DMSO, pH 5,8; 25 °C; n=number of titrations. For orientation: In SPR one partner is held on a chip, and binding of the other changes the refractive index at the surface.

The target of assay [2] is T1, NLPPya. As to the kind of experiment: Infiltration of NLPs into tobacco leaves in the presence of compounds (inhibition of necrosis). Conditions: compound at the final 1 mM concentration; NLPPya 250 nM; tobacco leaves (Figure 5). It is filed as in vivo. The procedure: NLP proteins: NLPPya from the oomycete, Pythium aphanidermatum, was prepared in recombinant form by the use of heterologous expression system for protein production in Escherichia coli. NLPPp from oomycete Phytophthora parasitica was prepared in yeast Pichia pastoris. Proteins were purified with chromatographic procedures and stored in water solutions at -20 °C.
We have injected 50 µL of solution.

T1 sequence (Q9SPD4 18-234 limits assumed): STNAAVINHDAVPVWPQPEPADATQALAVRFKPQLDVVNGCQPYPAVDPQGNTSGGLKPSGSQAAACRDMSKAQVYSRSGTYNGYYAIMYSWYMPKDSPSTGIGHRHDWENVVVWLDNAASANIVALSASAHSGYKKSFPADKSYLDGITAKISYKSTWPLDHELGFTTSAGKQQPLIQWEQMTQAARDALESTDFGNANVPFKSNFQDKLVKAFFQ

By Kd is commonly meant the equilibrium constant for the complex coming apart. A low value points to higher affinity. Take `Cc1ccc(Nc2ccccc2C(=O)O)cc1` [IIb, 2-[(4-methylphenyl)amino]benzoic acid]: the Kd worked out at 98 µM at NLPPya [1] and 83.2 µM at NLPPp.
Consider `Cc1ccc(C)c(Nc2c(C(=O)O)cc([N+](=O)[O-])cc2[N+](=O)[O-])c1` [IId, 2-[(2,5-dimethylphenyl)amino]-3,5-dinitrobenzoic acid], for which the dissociation constant (Kd) on NLPPp came out at 39.7 µM.
`O=C(O)c1ccccc1Nc1cccc(F)c1` [IIc, N-(3-Fluorophenyl)anthranilic acid]: the Kd was determined as 77.3 µM on NLPPya [1] and 62.4 µM at NLPPp.
In the case of `Cc1ccc2occ(C3NC(C(=O)O)CS3)c(=O)c2c1` (stereo not drawn) [Compound I, 2-(6-methyl-4-oxochromen-3-yl)-1,3-thiazolidin-3-ium-4-carboxylate], at NLPPya [2], the “necrosis after infiltration of NLP proteins in the presence of compound” value was “Necrosis was not visible”.
For the compound `COc1ccc(Nc2ccccc2C(=O)O)cc1` [Compound IIa, 2-[(4-methoxyphenyl)amino]benzoic acid], at NLPPya [2], the “necrosis after infiltration of NLP proteins in the presence of compound” value is “Necrosis was not visible”. Moreover, the Kd at NLPPya [1] is 131 µM; at NLPPp it was 71.9 µM.
